According to US20120225862A1, “HETEROARYL BENZAMIDES, COMPOSITIONS AND METHODS OF USE” (AUCKLAND UNIVSERVICES LIMITED, priority 2009, published 2012):

Columns and labels:
RCC4 [1] = test: 3H-2-deoxyglucose uptake, RCC4; type: cell-based, human; settings: 3H-2-deoxyglucose, two days of treatment, 5 μM
Procedure: One hundred thousand cells were plated into 6-well plates. The following day, the cells were treated with vehicle or drug and incubated for the indicated time. Cells were washed twice in phosphate buffered saline and low glucose media was added for 30 minutes. Cells were then incubated with 0.5 microCi of tritiated-2-deoxyglucose and incubated for an hour at 37° C. Cells were washed twice in PBS and then lysed in 0.2 N NaOH and 0.2% SDS. Lysates were transferred to scintillation tubes with scintillation fluid and quantified by scintillation counter.
One hundred thousand cells were plated per well in a six-well plate. The next day, cells were treated with the indicated concentration of drug and incubated for the indicated time. Cells were then washed twice with phosphate-buffered saline, incubated in low-glucose medium for 30 minutes, and ^3H-2-deoxyglucose (0.5 μCi) was added in 1 ml of glucose-free media for an additional hour. Cells were washed twice in PBS and lysed (0.2 N NaOH and 0.2% sodium dodecyl sulfate). Glucose uptake was quantified with a scintillation counter.

786-O = test: FDG-PET imaging of 786-O xenografts; type: in vivo, mice; settings: 786-O xenografts in CD-1 nude mice, three daily i.p. doses (11.6 mg/kg)
Procedure: FIG. 5A-E In vivo monitoring and efficacy of compound 47. […] 786-O, a renal clear cell carcinoma with a naturally occurring VHL mutation, were implanted subcutaneously into the flanks of CD-1 nude mice. Representative axial cross section of a mouse prior to treatment (left) and following three daily i.p. injections with compound 85 (11.6 mg/kg)(right), overlaid over CT scan. (B) Quantitatively, compound 85 inhibits FDG-PET in mouse xenografts. Quantification of FDG-PET inhibition by compound 85 as determined by the 90th percentile ROI for percent injected dose per gram (% ID/g) (*p<0.01). (C) Compound 85 is not toxic to normal tissues. (a, b) Kidney of vehicle- and compound 85-treated animals. (c, d) Spleen of vehicle- and compound 85-treated animals. (e, f) Liver of vehicle- and compound 85-treated animals. (g, h) Heart of vehicle- and compound 85-treated animals. (i, j) Salivary gland of vehicle- and compound 85-treated animals. (k, l) Brain of vehicle- and compound 85-treated animals. Scale bar represents 100 microns. (D) Compound 85 delays tumor growth. 786-O tumor-bearing mice were treated daily with vehicle or compound 85 (11.6 mg/kg for the first 3 days, followed by 7.8 mg/kg for the next week)(*p<0.005). (E) Compound 85 delays tumor growth in cells that have lost VHL. ACHN cells expressing a short hairpin RNA to VHL were implanted subcutaneously into the flanks of immunocompromised mice. Once tumors reached an average of >20 mm^3, mice were treated daily with compound 85 or vehicle (*p<0.05). All error bars represent the standard error of the mean.
In Vivo Studies and Immunohistochemistry. All experiments were approved by Stanford's Administrative Panel on Laboratory Animal Care (APLAC) and in accordance with both institutional and national guidelines. Five million cells were implanted subcutaneously into the flanks of nude mice (4-6 weeks old)(Charles River Laboratories). Tumors were measured with calipers. Volume was calculated by the following formula: width^2×0.5 length. […]

GLUT1 = target: T1, GLUT1 (Homo sapiens, UniProt P11166); test: Affi-gel affinity binding of GLUT1 from cell lysates; settings: salt elution, immunoblot; for binding of GLUT1 to Affi-gel immobilized compound, RCC4 lysates: RCC4 cell lysates
T1 construct: endogenous in cells; host or cells: RCC4 and RCC4/VHL cell lysates
T1 sequence (P11166 1-492): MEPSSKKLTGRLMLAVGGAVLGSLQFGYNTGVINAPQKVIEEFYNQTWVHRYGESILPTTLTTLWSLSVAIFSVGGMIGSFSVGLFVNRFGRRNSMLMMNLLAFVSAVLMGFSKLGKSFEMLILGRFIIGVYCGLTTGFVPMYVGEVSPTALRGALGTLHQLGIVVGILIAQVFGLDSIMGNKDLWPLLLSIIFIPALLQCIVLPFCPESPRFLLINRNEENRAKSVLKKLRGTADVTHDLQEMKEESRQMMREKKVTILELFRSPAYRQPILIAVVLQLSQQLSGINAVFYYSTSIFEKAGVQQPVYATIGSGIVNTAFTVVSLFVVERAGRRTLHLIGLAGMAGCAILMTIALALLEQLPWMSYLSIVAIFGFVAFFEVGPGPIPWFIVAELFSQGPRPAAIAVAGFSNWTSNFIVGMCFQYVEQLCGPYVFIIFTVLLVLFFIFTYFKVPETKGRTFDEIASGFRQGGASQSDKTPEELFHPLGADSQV
Procedure: All cells were grown in DMEM+10% FCS. ACHN and ACHN shVHL were a kind gift from George V. Thomas (UCLA). HIF overexpressing clones were described previously. Transfection of RNA oligos were performed with DnarmaFECT Reagent 1 (Dharmcon), according to manufacturer's directions. ON-TARGETplus SMART pools against HIF-1β/ARNT were purchased from Dharmacon. Glut1 was detected with anti-GLUT1 antibody from NeoMarkers/LabVision/Fisher. Pyruvate/lactate levels and hexokinase activity were both measured by fluorometric assay (BioVision and Sigma-Aldrich, respectively). ATP levels were measured by bioluminescence assay (ATP Determination Kit from Molecular Probes/Invitrogen). In vitro kinase activities were performed by Millipore KinaseProfiler. Affi-Gel 10 (BioRad) activated affinity media was coupled to analogs to generate immobilized affinity linkers.
We next wanted to investigate the differential glucose uptake between RCCs with and without VHL treated with compound 47 that subsequently lead to the selective death of VHL-deficient cells. We first examined the message levels of the two main glucose transporters, GLUT1 and GLUT2 by quantitative real-time PCR. GLUT1 is an inducible, high-affinity glucose transporter, while GLUT2 is the glucose transporter responsible for basal glucose uptake. Other family members, such as GLUT3 and GLUT4, are not expressed in renal cells. GLUT1 was highly expressed in cells lacking VHL, while cells with VHL had very low levels of GLUT1 (FIG. 3I). In contrast, GLUT2 was highly expressed in cells with wild-type VHL. Cells deficient in VHL had very low levels of GLUT2 that could barely be detected (FIG. 3J). […] In order to more directly test this, we performed binding assays to see whether compound 47 was directly interacting with GLUT1. An analog of compound 47, compound 116 was synthesized and linked to an immobilized linker (Affi-gel 10). Cell lysates from both RCC4 and RCC4/VHL were incubated with the Affi-gel-compound 47. […]

RCC4 [2] = test: XTT IC50 / viability assay, RCC4 cells; type: cell-based, human; settings: for IC50: Homo sapiens, RCC4, 96 h, XTT assay, four days
Outline: (§1)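 RCC4 parental and VHL-reintroduced RCC4/VHL cells (DMEM, 10% FCS) treated with serially diluted drug for four days. Viability by XTT (0.3 mg/mL) with N-methyl dibenzopyrazine methyl sulfate, 1–2 h at 37 °C, absorbance 450 nm; IC50 by linear interpolation.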

RCC4/VHL [3] = test: XTT IC50 assay, selectivity RCC4 versus RCC4 with VHL-reintroduced; type: cell-based, human; settings: selectivity ratio of XTT IC50 values, RCC4 vs RCC4/VHL
Outline: as §1

RCC4 [4] = test: Clonogenic survival, RCC4; type: cell-based, human; settings: RCC4 (VHL-deficient), 5 μM, 10 days
Procedure: Three hundred cells were plated into 60-mm tissue culture dishes in DMEM. The next day, cells were treated with vehicle or drug and were further incubated for an additional 10 days. […] The stain was removed and plates were washed in deionized water. Colonies were quantified. All conditions were measured in triplicate and all experiments were performed in triplicate.
For 2,3-bis[2-methoxy-4-nitro-5-sulfophenyl]-2H-tetrazolium-5-carboxanilide (XTT) assays, five thousand cells were plated in 96-well plates. The next day, vehicle (DMSO) or drug was added by serial dilution. […] Metabolism of XTT was quantified by measuring the absorbance at 450 nm. IC50s were calculated using linear interpolation. For clonogenic survival assays, three hundred cells were plated per 60 mm tissue culture dish. The cells were allowed to attach overnight and then treated with vehicle or drug for […]. […] All conditions were measured in triplicate and each experiment was done in duplicate or triplicate. To determine necrosis, cells were treated with drug for a given time point. Media and cells were collected, centrifugated, and resuspended in 0.4% trypan blue (Invitrogen). Live and dead cells were counted on a hematocytometer.

RCC4/VHL [5] = test: Clonogenic survival, RCC4/VHL; type: cell-based, human; settings: RCC4/VHL (wild-type VHL), 5 μM, 10 days
Procedure: Three hundred cells were plated into 60-mm tissue culture dishes in DMEM. The next day, cells were treated with vehicle or drug and were further incubated for an additional 10 days. After 10 days, the media was removed and colonies were fixed and stained in 95% ethanol and 0.1% crystal violet for 15 minutes. The stain was removed and plates were washed in deionized water. Colonies were quantified. All conditions were measured in triplicate and all experiments were performed in triplicate.
For 2,3-bis[2-methoxy-4-nitro-5-sulfophenyl]-2H-tetrazolium-5-carboxanilide (XTT) assays, five thousand cells were plated in 96-well plates. The next day, vehicle (DMSO) or drug was added by serial dilution. Four days later, media were aspirated, XTT solution (0.3 mg/ml of XTT (Sigma), 2.65 mg/ml N-methyl dibenxopyrazine methyl sulfate (Simga) in phenol red-free media) was added, and the plates were incubated at 37° C. for 1-2 hours. Metabolism of XTT was quantified by measuring the absorbance at 450 nm. IC50s were calculated using linear interpolation. For clonogenic survival assays, three hundred cells were plated per 60 mm tissue culture dish. The cells were allowed to attach overnight and then treated with vehicle or drug for 14 days. […] All conditions were measured in triplicate and each experiment was done in duplicate or triplicate. […] Live and dead cells were counted on a hematocytometer.

binding of GLUT1 to Affi-gel immobilized compound, RCC4 lysates (GLUT1) | SMILES | IC50 (RCC4 [2]) | Ratio (RCC4:RCC/VHL) (RCC4/VHL [3]) | also measured
– | Cc1cccc(Nc2nc(-c3ccncc3)cs2)c1 [4-(pyridin-4-yl)-N-(m-tolyl)thiazol-2-amine, reference compound] | – | – | glucose uptake in VHL-deficient RCC4 cells (RCC4 [1]): did not decrease glucose uptake; glucose uptake within tumors by FDG-PET (786-O): did not have a decrease in glucose uptake
did not bind | Cc1cccc(Nc2nc(-c3ccnc(-c4cn(CCCCCCN)nn4)c3)cs2)c1 [4-{2-[1-(6-aminohexyl)-1H-1,2,3-triazol-4-yl]-4-pyridinyl}-N-(3-methylphenyl)-1,3-thiazol-2-amine, reference compound] | – | – | binding of GLUT1 to Affi-gel immobilized compound, RCC4/VHL lysates (GLUT1; RCC4/VHL cell lysates): did not bind
– | COc1cccc(S(=O)(=O)NCc2ccc(C(=O)Nc3cccnc3)cc2)c1 [Example 18, 4-((3-Methoxyphenylsulfonamido)methyl)-N-(pyridin-3-yl)benzamide] | 1 to 20 µM | b (“b” reflects from 10 to 100) | number of RCC4 cells compared to RCC4/VHL (XTT metabolic activity) (RCC4 [2]; four days of treatment, concentration-dependent, FIG. 2A): significant decrease in the number of RCC4 cells; clonogenic survival of RCC4 (RCC4 [4]): specifically toxic to RCC4 cells; clonogenic survival of RCC4/VHL (RCC4/VHL [5]): relatively unaffected
bound | NCCOCCOCCOCCOCCOCCOCC#Cc1ccc(S(=O)(=O)NCc2ccc(C(=O)Nc3cccnc3)cc2)cc1 [Example 100, 4-[({[4-(21-Amino-4,7,10,13,16,19-hexaoxahenicos-1-yn-1-yl)phenyl]sulfonyl}amino)methyl]-N-(3-pyridinyl)benzamide] | 1 to 20 µM | a (“a” reflects a ratio of RCC4/RCC-VHL+ ranging from 1 to 10) | –
